# Data reported in patent US20110269790A1, “NOVEL THIENOPYRIDINES AS PHARMACOLOGICALLY ACTIVE AGENTS” (priority 2009, published 2011).
# Where “and” joins values, the source holds several entries; their conditions need not be identical. Equal entries are not always repeated. Entries after “also recorded” stand apart in the source; their conditions may differ. Where two headings read alike, the source gives them in different places.
# Columns and labels:
# Wistar rats = assay: Carrageenan induced paw edema model; format: in vivo, rat; conditions: for change in vivo at 100 mg/kg / inhibition in vivo at 100 mg/kg: Rattus norvegicus; for change in vivo at 100 mg/kg: read-out: % Increase in Paw Volume; for inhibition in vivo at 100 mg/kg: read-out: % Inhibition (paw volume); for % Inhibition / Percentage Swelling (50 mg/kg) / Percentage Swelling (100 mg/kg) / Percentage Swelling (200 mg/kg): dose response study, n=6
# Description: Male Albino Wistar rats of 150-180 grams were used for the experiments.
# Anti-inflammatory activity of test compounds was evaluated in Wistar rats employing the method of Winter et al (1963) and Diwan et al (1989). Male Wistar rats were used for the study. […] The different test compounds were administered to the animals in the test group at the dose of 100 mg/kg, by oral route. Animals in the standard group received Indomethacin at the dose of 10 mg/kg, by oral route. All test and standard compounds were administered as 1% gum acacia suspension. Rats in the control group received the vehicle solution without drugs. One hour after test drugs administration, rats in all the groups were challenged with 0.1 ml of 1% Carrageenan in the sub plantar region of right hind paw. A zero hour paw volume was measured for all the rats using digital plethysmometer (Ugo Basile, Italy) before the administration of carrageenan for all groups. Paw volumes were again measured 3 hrs after the challenge of Carrageenan. The percent inhibition of paw volume for each rat in treated groups was calculated by comparing with mean paw volume of control group and expressed as mean (±SE) percent inhibition of paw volume for each test. In a preliminary study the compounds that have shown good activity were evaluated for dose response study by using above procedure.
# [1] = system: crude intestinal α-glucosidase; assay: In-vitro mammalian (rat intestinal) α-glucosidase inhibition assay; format: biochemical; conditions: for Mammalian α Glucosidase Inhibition (Mean ± S.E): highest concentration 5 mg/ml; for IC50: mammalian α-glucosidase, dose response study
# Excerpt: (§1) Chemicals: α-Glucosidase [(EC 3.2.1.20) Type I: from bakers yeast], rat intestinal acetone powder (as a source of crude intestinal α-glucosidase), α-amylase [EC 3.2.1.1) Type VI B: from porcine pancreas], p-nitrophenyl α-D-glucopyranoside, 3,5-dinitro salicylic acid, soluble potato starch and 1-deoxyrojirimycine, were purchased from Sigma Chemical Co., St Louis, Mo., USA. Other chemicals of analytical grade were procured from indigenous manufacturers.
# In-vitro a-Glucosidase Inhibition Assay: Yeast and intestinal a-glucosidase inhibitory activities were determined as per reported methods (Babu et al., 2004; Mc Dougall et al., 2005). Rat intestinal acetone powder in normal saline (100% w/v) was sonicated properly and the supernatant was used as a source of crude intestinal a-glucosidase after centrifugation. In brief, 20 μl, of test samples (100 mg/ml DMSO solution) were reconstituted in 100 μl of 100 mM-Phosphate buffer (pH 6.8) in a 96-well microplate and incubated with 50 μl yeast a-glucosidase (0.76 μ/ml in same buffer) or crude intestinal a-glucosidase for 5 min before 50-μl substrate (5 mM, […] prepared in same buffer) was added. Release of p-nitrophenyol was measured at 405 nm spectrophotometrically (Spectra Mas Plus 384, Molecular Device corporation, Sunnyvale, Calif., USA) 5 min after incubation with substrate, individual blank for test samples were prepared to correct background absorbance where the substrate was replaced with 50 μl of buffer. The control sample contained 20 μl DMSO in place of test samples. The percentage of enzyme inhibition was calculated as (A−B/A)×100 where A is represents the absorbance of the control without test samples, and B represents the absorbance in the presence of test samples. […] The IC50 values were calculated by applying logarithmic regression analysis from the mean inhibitory values.
# [2] = molecular target: T1, porcine pancreatic α-amylase (Sus scrofa, UniProt P00690); assay: α-Amylase inhibition assay; format: biochemical; conditions: 10 mg per ml; for Maltose released: a/b marks the respective control (Control-1 2.147, Control-2 3.429); for inhibition at 10000 µg/mL (stock): 0.05 h, calculated from maltose released vs respective control
# T1 construct: α-amylase [EC 3.2.1.1) Type VI B: from porcine pancreas]; purchased Sigma Chemical Co., St Louis, Mo., USA; host or cells: porcine pancreas (natural source)
# T1 sequence (P00690 16-511): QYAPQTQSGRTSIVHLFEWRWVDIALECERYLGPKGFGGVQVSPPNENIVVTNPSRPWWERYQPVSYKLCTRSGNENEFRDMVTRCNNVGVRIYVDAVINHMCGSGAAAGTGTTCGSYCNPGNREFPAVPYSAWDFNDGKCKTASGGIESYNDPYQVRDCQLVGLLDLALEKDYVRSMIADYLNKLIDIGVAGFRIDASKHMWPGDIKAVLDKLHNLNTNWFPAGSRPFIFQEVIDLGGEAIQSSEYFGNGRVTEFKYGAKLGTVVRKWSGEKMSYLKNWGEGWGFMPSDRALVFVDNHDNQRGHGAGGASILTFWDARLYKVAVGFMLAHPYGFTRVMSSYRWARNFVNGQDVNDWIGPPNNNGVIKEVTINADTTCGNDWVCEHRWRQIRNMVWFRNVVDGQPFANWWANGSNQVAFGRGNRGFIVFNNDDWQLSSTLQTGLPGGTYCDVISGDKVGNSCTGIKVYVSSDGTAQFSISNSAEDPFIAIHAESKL
# Excerpt: as §1
# a-Amylase Inhibition Assay: The assay method was adopted from Ali et al. (2006) and modified accordingly to suite microplate reading. In brief, 40 μL of test samples (10 mg/mL DMSO) were reconstituted in 160 μL of 20 mM phosphate buffer (pH 6.9) containing 6.7 mM sodium chloride in 2 mL Eppendorf tubes and incubated with 200 μL of porcine pancreatic α-amylase) (4 U/mL prepared in ice cold distilled water) for 5 min. The reaction was started by the addition of 400-μL soluble potato starch solution (0.5% w/v in 20 mM phosphate buffer, pH 6.9). Exactly 3 min after incubation, 400 μL DNS color reagent (1.0 g of 3,5-dinitrosalicylic acid, 30 g of sodium potassium tartrate and 20 mL of 2 N NaOH to a final volume of 100 mL in distilled water) was added. Closed tubes were placed in a water bath (85-90° C.) for 10 min to develop color and cooled thereafter. 50 μL of reaction mixtures was diluted with 175 μL of distilled water in a 96-well microplate. α-Amylase activity was determined by measuring the absorbance of the mixture at 540 nm spectrophotometrically as above. Individual blanks were prepared to correct for the background absorbance due to test samples. In this case DNS solution was added in tubes before addition of substrate. The percentage inhibition of enzyme activity was calculated as above. All the tests were run in duplicate in this assay.
# [3] = test compounds 100 mg/kg oral, Indomethacin 10 mg/kg oral, 3 hrs after Carrageenan
SMILES,change in vivo at 100 mg/kg (Wistar rats; [3]) [%],inhibition in vivo at 100 mg/kg (Wistar rats; [3]) [%],Mammalian α Glucosidase Inhibition (Mean ± S.E) [1] [%],Maltose released [2] [mg/mL],inhibition at 10000 µg/mL (stock) [2] [%],Mammalian α-glucosidase inhibitory activity (in words) [1],Alpha amylase inhibitory activity (in words) [2],further results
"Cc1sc2nc3c(c(N)c2c1C)CCC3 [BN-1, 2,3-dimethyl-6,7-dihydro-5H-cyclopenta[b]thieno[3,2-e]pyridin-4-amine]",87.9 ± 2.78,24.7 ± 5.49,0.0 ± 0.0,2.20,-3.12,–,–,–
"Cc1sc2nc3c(c(N)c2c1C)CCCC3 [BN-2, 2,3-dimethyl-5,6,7,8-tetrahydrothieno[2,3-b]quinolin-4-amine]",83.1 ± 2.66,20.6 ± 2.05,40.0 ± 2.5,2.095,39.7,moderate inhibitory activity,strong inhibitory activity; also recorded: mild inhibition,–
"Cc1sc2nc3c(c(N)c2c1C)CCCCC3 [BN-4, 2,3-dimethyl-6,7,8,9-tetrahydro-5H-cyclohepta[b]thieno[3,2-e]pyridin-4-amine]",68.1 ± 3.41,41.8 ± 3.77,38.37 ± 1.0,3.496,-2.01,moderate inhibitory activity,–,% Inhibition (Wistar rats; 50 mg/kg oral): 23.93 ± 2.96%; Percentage Swelling (50 mg/kg) (Wistar rats; 50 mg/kg oral): 73.27 ± 4.47 %; % Inhibition (Wistar rats; 100 mg/kg oral): 35.68 ± 3.77%; Percentage Swelling (100 mg/kg) (Wistar rats; 100 mg/kg oral): 64.42 ± 3.97 %; % Inhibition (Wistar rats; 200 mg/kg oral): 53.2% and 53.2 ± 3.03%; Percentage Swelling (200 mg/kg) (Wistar rats; 200 mg/kg oral): 44.23 ± 3.34 %
"Nc1c2c(nc3sc4c(c13)CCCC4)CCC2 [BN-5, 2,3,6,7,8,9-Hexahydro-1H-benzo[4,5]thieno[2,3-b]cyclopenta[e]pyridin-10-amine]",101 ± 2.94,4.32 ± 1.19,0.0 ± 0.0,3.226,4.85,–,–,–
"Nc1c2c(nc3sc4c(c13)CCCC4)CCCC2 [BN-6, 1,2,3,4,7,8,9,10-Octahydrobenzo[4,5]thieno[2,3-b]quinolin-11-amine]",109 ± 2.73,3.14 ± 1.96,19.92 ± 1.27,2.548,26.2,–,mild inhibition,–
"CC1CCc2c(nc3sc4c(c3c2N)CCCC4)C1 (centres unmarked) [BN-7, 8-Methyl-1,2,3,4,7,8,9,10-octahydrobenzo[4,5]thieno[2,3-b]quinolin-11-amine]",113 ± 22.3,0.7 ± 0.7,50.19 ± 0.93,2.163,-0.765,moderate inhibitory activity,–,–
"Nc1c2c(nc3sc4c(c13)CCCC4)CCCCC2 [BN-8, 2,3,4,7,8,9,10,11-Octahydro-1H-benzo[4,5]thieno[2,3-b]cyclohepta [e]pyridin-12-amine]",–,–,10.76 ± 0.92,0.913,–,–,strong inhibitory activity,"change in vivo at 100 mg/kg (Wistar rats; po, 3 h): 109 ± 4.87%; inhibition in vivo at 100 mg/kg (Wistar rats; po, 3 h): 1.2 ± 0.87%"
"Nc1c2c(nc3sc4c(c13)CCC4)CCC2 [BN-13, 1,2,3,6,7,8-hexahydrocyclopenta [b]cyclopenta[4,5] thieno[3,2-e]pyridin-9-amine]",–,–,76.13,1.278,–,significant inhibitory activity,strong inhibitory activity,"change in vivo at 100 mg/kg (Wistar rats; po, 3 h): 91.7 ± 25.7%; inhibition in vivo at 100 mg/kg (Wistar rats; po, 3 h): 12.3 ± 1.95%; Mammalian α-glucosidase inhibition (Mean ± S.E) ([1]; 0.039063 mg/ml): 10.06 ± 1.36%; Mammalian α-glucosidase inhibition (Mean ± S.E) ([1]; 0.078125 mg/ml): 27.07 ± 1.93%; Mammalian α-glucosidase inhibition (Mean ± S.E) ([1]; 0.15625 mg/ml): 34.89 ± 2.28%; Mammalian α-glucosidase inhibition (Mean ± S.E) ([1]; 0.3125 mg/ml): 44.87 ± 1.62%; Mammalian α-glucosidase inhibition (Mean ± S.E) ([1]; 0.625 mg/ml): 52.97 ± 1.47%; Mammalian α-glucosidase inhibition (Mean ± S.E) ([1]; 1.25 mg/ml): 67.24 ± 1.08%; Mammalian α-glucosidase inhibition (Mean ± S.E) ([1]; 2.5 mg/ml): 71.39 ± 1.82%; Mammalian α-glucosidase inhibition (Mean ± S.E) ([1]; 5 mg/ml): 76.13 ± 0.03%; IC50 [1]: 509 µg/mL"
"Nc1c2c(nc3sc4c(c13)CCC4)CCCC2 [BN-14, 2,3,6,7,8,9-Hexahydro-1H-cyclopenta[4,5]thieno[2,3-b]quinolin-10-amine]",–,33.5 ± 8.35,58.37,2.210,-3.06,significant inhibitory activity,–,% Inhibition (Wistar rats; 50 mg/kg oral): 19.80 ± 2.24%; Percentage Swelling (50 mg/kg) (Wistar rats; 50 mg/kg oral): 72.34 ± 1.73 %; % Inhibition (Wistar rats; 100 mg/kg oral): 33.47 ± 6.70%; Percentage Swelling (100 mg/kg) (Wistar rats; 100 mg/kg oral): 71.30 ± 3.72 %; % Inhibition (Wistar rats; 200 mg/kg oral): 56.45% and 56.45 ± 3.12%; Percentage Swelling (200 mg/kg) (Wistar rats; 200 mg/kg oral): 41.78 ± 3.31 %; Mammalian α-glucosidase inhibition (Mean ± S.E) ([1]; 0.039063 mg/ml): 7.79 ± 3.11%; Mammalian α-glucosidase inhibition (Mean ± S.E) ([1]; 0.078125 mg/ml): 20.75 ± 2.19%; Mammalian α-glucosidase inhibition (Mean ± S.E) ([1]; 0.15625 mg/ml): 26.76 ± 1.37%; Mammalian α-glucosidase inhibition (Mean ± S.E) ([1]; 0.3125 mg/ml): 34.49 ± 1.19%; Mammalian α-glucosidase inhibition (Mean ± S.E) ([1]; 0.625 mg/ml): 40.62 ± 0.63%; Mammalian α-glucosidase inhibition (Mean ± S.E) ([1]; 1.25 mg/ml): 51.56 ± 0.74%; Mammalian α-glucosidase inhibition (Mean ± S.E) ([1]; 2.5 mg/ml): 54.74 ± 1.01%; Mammalian α-glucosidase inhibition (Mean ± S.E) ([1]; 5 mg/ml): 58.37 ± 2.20%; IC50 [1]: 1560 µg/mL
"COc1ccc2c(c1)c(CC(=O)O)c(C)n2C(=O)c1ccc(Cl)cc1 [Indomethacin, reference compound]",41.7 ± 9.97,50.1 ± 12.1,–,–,–,–,–,–
